Key:
[1] = tested on: COG-N-496x neuroblastoma PDX; assay: High-risk neuroblastoma PDX COG-N-496x; assay type: in vivo, NSG mice; conditions: COG-N-496x PDX; vincristine 0.5 mg/kg i.p. once weekly
Description: (§1) All animal studies were performed in accordance with the guidelines approved by University of New South Wales Animal Care and Ethics Committee (ACEC 17/53B) and in accordance with the requirements of the Australian Code for the Care and Use of Animals for Scientific Purposes. PDX models COG-N-440x and COG-N-496x were obtained from the Childhood Cancer Repository, Texas Tech University Health Sciences Center in Lubbock, TX, USA. 6–8 week old female NSG mice were engrafted by subcutaneous injection with 1 × 10^6 freshly thawed PDX tumor cells into one flank in a mixture of 100 μl RPMI-1640 and 100 μl Matrigel. Mice were monitored for tumor development three times weekly and tumor size measured using digital Vernier calipers. Treatments commenced when tumors reached 50 mm^3, following randomization into treatment arms. […] Mice were treated with either vincristine (0.5 mg/kg, once weekly i.p. in sterile saline for up to 5 weeks), WEHI-7326 (20 mg/kg; twice weekly i.v. in sterile saline for up to 5 weeks) or vehicle (as for WEHI-7326). For the Th-MYCN transgenic mouse model, spontaneous tumor growth in mice homozygous for the MYCN transgene was assessed by abdominal palpation at least twice a week. Treatments commenced once a small palpable tumor (~5 mm) was detected, following randomization to treatment arms. Mice were euthanized upon detection of an abdominal tumor of ~1 cm in diameter. […]

[2] = tested on: COG-N-440x neuroblastoma PDX; assay: High-risk neuroblastoma PDX COG-N-440x; assay type: in vivo, NSG mice; conditions: COG-N-440x PDX; vincristine 0.5 mg/kg i.p. once weekly
Description: as §1

Compound: CC[C@]1(O)C[C@H]2CN(CCc3c([nH]c4ccccc34)[C@@](C(=O)OC)(c3cc4c(cc3OC)N(C=O)[C@H]3[C@@](O)(C(=O)OC)[C@H](OC(C)=O)[C@]5(CC)C=CCN6CC[C@]43[C@@H]65)C2)C1 [vincristine, reference compound]
- Efficacy [1]: entirely ineffective
- Efficacy [2]: entirely ineffective

Source: PMC7955127, “Preclinical small molecule WEHI-7326 overcomes drug resistance and elicits response in patient-derived xenograft models of human treatment-refractory tumors” (Cell Death & Disease, 2021)
